Measured values as given in US20070208005A1, “TETRAHYDROBENZAZEPINES AS ANTAGONISTS AND/OR REVERSE AGONISTS OF THE HISTAMINE H3 RECEPTOR” (priority 2004, published 2007).

The molecules below were run against T1, histamine H3 receptor (Homo sapiens, UniProt Q9Y5N1) (assay: Histamine H3 functional antagonist assay ([35S]-GTPγS SPA on membranes of H3 cells)). Conditions: membrane prepared from cultured H3 cells (CHO K1, human H3); histamine at EC80; averages of a number of experiments; read-out: functional pKi (fpKi), H3 functional antagonist assay (converted).
T1 construct: expressed in transfected cells; host or cells: CHO K1 cells (pSwitch/pGene GeneSwitch system, mifepristone-induced), clone 3H3; membranes
Type: biochemical
Excerpt: A membrane preparation containing histamine H3 receptors may be prepared in accordance with the following procedures:
(i) Generation of Histamine H3 Cell Line
DNA encoding the human histamine H3 gene (Huvar, A. et al. (1999) Mol. Pharmacol. 55(6), 1101-1107) was cloned into a holding vector, pcDNA3.1 TOPO (InVitrogen) and its cDNA was isolated from this vector by restriction digestion of plasmid DNA with the enzymes BamH1 and Not-1 and ligated into the inducible expression vector pGene (InVitrogen) digested with the same enzymes. The GeneSwitch™ system (a system where in transgene expression is switched off in the absence of an inducer and switched on in the presence of an inducer) was performed as described in U.S. Pat. Nos. 5,364,791; 5,874,534; and 5,935,934. Ligated DNA was transformed into competent DH5α E. coli host bacterial cells and plated onto Luria Broth (LB) agar containing Zeocin™ (an antibiotic which allows the selection of cells expressing the sh ble gene which is present on pGene and pSwitch) at 50 μg ml^−1. Colonies containing the re-ligated plasmid were identified by restriction analysis. DNA for transfection into mammalian cells was prepared from 250 ml cultures of the host bacterium containing the pGeneH3 plasmid and isolated using a DNA preparation kit (Qiagen Midi-Prep) as per manufacturers guidelines (Qiagen). CHO K1 cells previously transfected with the pSwitch regulatory plasmid (InVitrogen) were seeded at 2×10e6 cells per T75 flask in Complete Medium, containing Hams F12 (GIBCOBRL, Life Technologies) medium supplemented with 10% v/v dialysed foetal bovine serum, L-glutamine, and hygromycin (100 μg ml^−1), 24 hours prior to use. Plasmid DNA was transfected into the cells using Lipofectamine plus according to the manufacturers guidelines (InVitrogen). 48 hours post transfection cells were placed into complete medium supplemented with 500 μg ml^−1 Zeocin™.
10-14 days post selection 10 nM Mifepristone (InVitrogen), was added to the culture medium to induce the expression of the receptor. 18 hours post induction cells were detached from the flask using ethylenediamine tetra-acetic acid (EDTA; 1:5000; InVitrogen), following several washes with phosphate buffered saline pH 7.4 and resuspended in Sorting Medium containing Minimum Essential Medium (MEM), without phenol red, and supplemented with Earles salts and 3% Foetal Clone II (Hyclone). Approximately 1×10e7 cells were examined for receptor expression by staining with a rabbit polyclonal antibody, 4a, raised against the N-terminal domain of the histamine H3 receptor, incubated on ice for 60 minutes, followed by two washes in sorting medium. Receptor bound antibody was detected by incubation of the cells for 60 minutes on ice with a goat anti rabbit antibody, conjugated with Alexa 488 fluorescence marker (Molecular Probes). Following two further washes with Sorting Medium, cells were filtered through a 50 μm Filcon™ (BD Biosciences) and then analysed on a FACS Vantage SE Flow Cytometer fitted with an Automatic Cell Deposition Unit. Control cells were non-induced cells treated in a similar manner. Positively stained cells were sorted as single cells into 96-well plates, containing Complete Medium containing 500 μg ml^−1 Zeocin™ and allowed to expand before reanalysis for receptor expression via antibody and ligand binding studies. One clone, 3H3, was selected for membrane preparation.
(ii) Membrane Preparation from Cultured Cells
All steps of the protocol are carried out at 4° C. and with pre-cooled reagents. The cell pellet is resuspended in 10 volumes of homogenisation buffer (50 mM N-2-hydroxyethylpiperazine-N′-2-ethanesulfonic acid (HEPES), 1 mM ethylenediamine tetra-acetic acid (EDTA), pH 7.4 with KOH, supplemented with 10e-6M leupeptin (acetyl-leucyl-leucyl-arginal; Sigma L2884), 25 μg/ml bacitracin (Sigma B0125), 1 mM phenylmethylsulfonyl fluoride (PMSF) and 2×10e-6M pepstain A (Sigma)). […]

T1 sequence (Q9Y5N1 whole entry): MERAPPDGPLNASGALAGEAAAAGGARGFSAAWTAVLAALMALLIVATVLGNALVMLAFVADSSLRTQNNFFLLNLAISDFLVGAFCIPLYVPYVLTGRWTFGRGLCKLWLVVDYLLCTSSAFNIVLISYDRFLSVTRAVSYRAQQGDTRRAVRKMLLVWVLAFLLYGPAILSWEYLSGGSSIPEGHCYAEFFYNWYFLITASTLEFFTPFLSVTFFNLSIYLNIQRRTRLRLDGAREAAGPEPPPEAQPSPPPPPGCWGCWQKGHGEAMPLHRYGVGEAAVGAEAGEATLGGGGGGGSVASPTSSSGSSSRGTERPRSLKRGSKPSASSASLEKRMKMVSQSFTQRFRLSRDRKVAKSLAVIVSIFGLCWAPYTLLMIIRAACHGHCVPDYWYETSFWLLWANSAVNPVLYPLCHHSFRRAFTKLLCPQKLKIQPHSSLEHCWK

Ki	SMILES
< 3.16 nM	O=c1nc(-c2ccc(Cc3ccc4c(c3)CCN(C3CCC3)CC4)cc2)[nH]o1 [Example E58, 3-{4-[(3-cyclobutyl-2,3,4,5-tetrahydro-1H-3-benzazepin-7-yl)methyl]Phenyl}-1,2,4-oxadiazol-5(2H)-one]
< 0.316 nM	c1cnn(-c2ccc(Cc3ccc4c(c3)CCN(C3CCC3)CC4)cc2)c1 [Example E59, 3-cyclobutyl-7-{[4-(1H-pyrazol-1-yl)phenyl]methyl}-2,3,4,5-tetrahydro-1H-3-benzazepine]
< 0.316 nM	c1ncn(-c2ccc(Cc3ccc4c(c3)CCN(C3CCC3)CC4)cc2)n1 [Example E60, 3-cyclobutyl-7-{[4-(1H-1,2,4-triazol-1-yl)phenyl]methyl}-2,3,4,5-tetrahydro-1H-3-benzazepine]
